Here are results for seven compounds from ChEMBL document CHEMBL1817644, “Rational design of SAM analogues targeting SAM-II riboswitch aptamer” (Bioorg Med Chem Lett, 2011).

Common to all, as to type: nucleic-acid assay
Assay [1] deals with Nucleic Acid. Nature of the assay: Binding affinity to 2-amino purine labelled SAM2 riboswitch aptamer assessed as change in fluorescence at 5 mM to 10 mM at pH 8.3 by fluorescence binding assay.
For assay [2], the system named is Nucleic Acid. Kind of assay: Ratio of S-adenosylmethionine Kd to compound Kd for SAM2 riboswitch aptamer.
For assay [3], the system named is Nucleic Acid. Nature of the assay: Binding affinity to SAM1 riboswitch aptamer assessed as change in heat at 0.5 mM at pH 7.5 by Isothermal titration calorimetry. (In ITC the heat of successive injections is recorded.)

In general, Kd refers to a measure of binding affinity in units of concentration.

Active and inactive are the calls of the source. The rule behind the calls is not given here.

For the compound `Nc1ncnc2c1ncn2[C@@H]1O[C@H](CSCC[C@H](N)C(=O)O)[C@@H](O)[C@H]1O`, in assay [1], the result was inactive. Regarding `C[S+](CC[C@H](NC(=O)CCN)C(=O)O)C[C@H]1O[C@@H](n2cnc3c(N)ncnc32)[C@H](O)[C@@H]1O` (stereo not given in full), the result in assay [1] was inactive. Same read-out and setting: the entry for `C[S+](CC[C@H](NC(=O)CNCCN)C(=O)O)C[C@H]1O[C@@H](n2cnc3c(N)ncnc32)[C@H](O)[C@@H]1O` (stereo not given in full) is “inactive”. For `C[S+](CC[C@H](N)C(=O)[O-])C[C@H]1O[C@@H](n2cnc3c(N)ncnc32)[C@H](O)[C@@H]1O` (stereo not given in full) [ADEMETIONINE], in assay [1], the outcome was Active and the equilibrium dissociation constant (Kd) was found to be 6 µM. As to `CN1/C(=C\c2cc[n+](CCCC(=O)N[C@@H](CC[S+](C)C[C@H]3O[C@@H](n4cnc5c(N)ncnc54)[C@H](O)[C@@H]3O)C(=O)O)c3ccccc23)Sc2ccccc21` (stereo not given in full), the Ratio in assay [2] came out at 2. Also, the outcome in assay [1] was Active. On to `C[S+](CC[C@H](N)C(=O)NCCN)C[C@H]1O[C@@H](n2cnc3c(N)ncnc32)[C@H](O)[C@@H]1O` (stereo not given in full), for which, in assay [3], the outcome was inactive. Also, the Kd in assay [1] was 3.1 µM. Turning to `C[S+](CC[C@H](NC(=O)CN)C(=O)O)C[C@H]1O[C@@H](n2cnc3c(N)ncnc32)[C@H](O)[C@@H]1O` (stereo not given in full), the outcome in assay [1] was inactive.
